Data set [1] is described as follows: refractive index (Na D-line) (dimensionless). As to conditions: 298.15 K; 101.33 kPa; Liquid; Standard Abbe refractometry.
For data set [2] the following is noted: 298.15 K; 101.33 kPa; Liquid; Vibrating tube method.

Each structure is given as a SMILES string. Numbers after ± are expanded uncertainties.

Experimental findings from the NIST ThermoML archive (doi:10.1016/j.fluid.2010.05.009) are described below.

One may read the refractive index as the speed of light in vacuum divided by its phase velocity in the sample. What is called mass density is mass per unit of volume.

Take `CCOS(=O)(=O)[O-].CC[n+]1cccc(C)c1` [1-ethyl-3-methylpyridinium ethylsulfate]: the refractive index in data set [1] worked out at 1.50591 ± 0.00038. Also, in data set [2], the mass density turned out to be 1219.61 ± 0.41 kg/m3.
